# Read-outs that look alike come from different tables or passages of the source.
# What was measured:
# [1] = in vitro; conditions: rat
# [2] = in vitro; conditions: human, serum
# [3] = cited from earlier work
# [4] = fu ratio (serum/microsome) from fu values by static analysis (versus buffer), Reference Examples 14 to 20; type: in vitro ADME, human; conditions: from fu values of Reference Examples 14 to 20 (static analysis versus buffer)
# [5] = fu ratio (serum/microsome) using fu value (microsome) and fu value (serum)=0.01 based on the FDA guidance, Reference Examples 21 to 27; type: in vitro ADME, human; conditions: fu value (microsome) of Reference Examples 14 to 20 and fu value (serum)=0.01 per FDA guidance (Reference Examples 21 to 27)
# [6] = target: T1, CYP3A4 (Homo sapiens, UniProt P08684); assay: Inhibition constant Ki in human hepatic microsome with midazolam as CYP3A4 probe substrate
# T1 sequence (P08684 whole entry): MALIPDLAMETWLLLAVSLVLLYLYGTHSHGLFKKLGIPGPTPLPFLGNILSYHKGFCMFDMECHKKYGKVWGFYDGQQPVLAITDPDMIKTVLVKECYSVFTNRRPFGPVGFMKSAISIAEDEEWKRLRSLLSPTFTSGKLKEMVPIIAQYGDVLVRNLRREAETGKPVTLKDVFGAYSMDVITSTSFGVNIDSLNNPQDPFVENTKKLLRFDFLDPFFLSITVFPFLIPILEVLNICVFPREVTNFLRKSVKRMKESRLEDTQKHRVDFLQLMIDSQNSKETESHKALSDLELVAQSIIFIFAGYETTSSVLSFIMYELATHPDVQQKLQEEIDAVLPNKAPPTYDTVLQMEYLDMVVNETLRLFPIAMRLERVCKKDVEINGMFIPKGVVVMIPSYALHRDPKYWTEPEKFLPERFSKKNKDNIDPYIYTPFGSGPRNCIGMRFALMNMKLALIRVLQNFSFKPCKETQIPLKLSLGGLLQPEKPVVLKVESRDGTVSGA
# Experimental: For predicting the DDI risk, midazolam that is a CYP3A4 substrate was used as a probe compound to determine an inhibition constant Ki value of each compound in human hepatic microsome.
# To 5 μL of a solution of midazolam dissolved therein at 50 mmol/L was added 70 μL of a 50% acetonitrile solution to obtain 75 μL in total of a solution. […] To 25 mg of commercially available β-NADPH (Wako Pure Chemical Industries, Ltd.) was added 3000 μL of a phosphate buffer at 0.1 mol/L to obtain a NADPH solution (10 mmol/L). The prepared solutions were mixed in the following order to obtain an inhibition reaction solution (100 μL in total), and the solution was reacted for 5 minutes with stirring at 37° C. where the time immediately after addition of the NADPH solution was defined as 0 minute after the start of the reaction.
# The thus-obtained sample was used as a LCMS measurement solution. Two sets of the LCMS measurement solution were prepared, with one intended for quantitative determination of 1-hydroxymidazolam generated by metabolic reaction and the other intended for measurement of the actual concentration of a compound to be measured (inhibitor). Each set was used for LCMS quantitative analysis.
# Therefore, the determined IC50 was directly used as Ki value.
# [7] = fu by static analysis (versus buffer), human serum (Reference Example); conditions: 24 h, 10% serum fu corrected to serum concentration 1/1
# [8] = Relative fu ratio (serum/microsome), human serum and human hepatic microsome, dynamic analysis; conditions: human serum fu corrected to 1/1, human hepatic microsome 0.1 mg/mL
# [9] = target: T1, CYP3A4; conditions: read-out: Km value; midazolam as CYP3A4 substrate, suggested in the literature; cited from earlier work
# [10] = fu value (microsome) by static analysis (versus buffer), Reference Examples 14 to 20; type: in vitro ADME; conditions: human, human hepatic microsomes 0.1 mg/mL dialysed against buffer, microsome 0.1 mg/mL
# [11] = target: T1, CYP3A4; design: unit not given beside the values; conditions: in vivo, cited from earlier work
# [12] = serum, 24 h, 0.2 μmol/L
# [13] = serum, 24 h, 0.2 μmol/L; remark: listed apart in the source
# [14] = rat and human, 24 h, 0.2 μmol/L
# [15] = fu by static analysis (versus buffer), rat serum (Reference Example); conditions: Reference Examples 4 to 13: 10% serum versus buffer, 24 h
# [16] = Relative fu ratio rat/human, equilibrium dialysis serum versus serum, dynamic analysis; conditions: Examples 4 to 13: 10% serum, analyte 0.2 μmol/L, 0.5-24 h
compound,measurement,setting,value
O=C1CCc2ccc(OCCCCN3CCN(c4cccc(Cl)c4Cl)CC3)cc2N1 [Aripiprazole],fraction unbound,[1]; serum,0.003
same,fraction unbound,[2]; Human (fu value),0.002
same,fraction unbound,[2]; Human serum (serum concentration: 1/1) (fu value),0.0021
same,Cmax,[3]; Dose 15 mg,242 ng/mL
CCCSc1nc(N[C@@H]2C[C@H]2c2ccc(F)c(F)c2)c2nnn([C@@H]3C[C@H](OCCO)[C@@H](O)[C@H]3O)c2n1 [Tikaglera],fu ratio (serum/microsome),[4],0.0065
same,fu ratio (serum/microsome),[5],0.0207
same,Ki value,"[6]; human hepatic microsome, midazolam 0.33 μmol/L, IC50 used as Ki",maximum addition concentration
same,Ki,"[6]; read-out: Ki value, human hepatic microsome, midazolam 0.33 μmol/L as CYP3A4 substrate, IC50 directly used as Ki",≥ 87 µM
same,Cmax,[3]; Dose 90 mg,403 ng/mL
same,Human serum (serum concentration: 1/1) (fu value),[7],0.0032
same,fu ratio (scrum/microsome),[8],0.0103
Cc1ncc2n1-c1ccc(Cl)cc1C(c1ccccc1F)=NC2 [midazolam],Km,[9],2.06 µM
c1ccc(Cc2nn[nH]n2)c(COc2ccc(OCc3ccc4ccccc4n3)cc2)c1 [RG12525],"fraction unbound at 24 h, 1 μmol/L",[10],0.77
same,fu ratio (serum/microsome),[4],0.0005
same,fu ratio (serum/microsome),[5],0.0129
same,Ki,[6],1.49 µM
same,Cmax,[3]; Dose 100 mg,1482 ng/mL
same,Cmax,[3]; Dose 600 mg,8186 ng/mL
same,AUCR (observed value),[11]; 100 mg,1.09
same,AUCR (observed value),[11]; 600 mg,1.01
COc1ccc2c(c1)[C@@H]1C[C@]1(C(=O)N1[C@@H]3CC[C@H]1CN(C)C3)Cn1c-2c(C2CCCCC2)c2ccc(C(=O)NS(=O)(=O)N(C)C)cc21 [Beclabuvir],"fraction unbound at 24 h, 0.2 μmol/L",[1]; serum,0.008
same,"fraction unbound at 24 h, 0.2 μmol/L",[2],0.007
C[C@]12C=CC(=O)N[C@@H]1CC[C@@H]1[C@@H]2CC[C@]2(C)[C@@H](C(=O)Nc3cc(C(F)(F)F)ccc3C(F)(F)F)CC[C@@H]12 [Dutasteride],"fraction unbound at 24 h, 0.2 μmol/L",[1]; serum,0.009
same,"fraction unbound at 24 h, 0.2 μmol/L",[2],0.006
CS(=O)(=O)CCNCc1ccc(-c2ccc3ncnc(Nc4ccc(OCc5cccc(F)c5)c(Cl)c4)c3c2)o1 [Lapatinib],"fraction unbound at 24 h, 1 μmol/L",[10],0.05
C=C[C@@H]1C[C@]1(NC(=O)[C@@H]1C[C@@H](Oc2ncc(OC)c3ccc(Cl)cc23)CN1C(=O)[C@@H](NC(=O)OC(C)(C)C)C(C)(C)C)C(=O)NS(=O)(=O)C1CC1 [Asunaprevir],"fraction unbound at 24 h, 0.2 μmol/L",[1],0.008
same,"fraction unbound at 24 h, 0.2 μmol/L",[2],0.005
O=C(O)c1ccc(-n2nc(-c3ccccc3O)nc2-c2ccccc2O)cc1 [Deferasirox],fu ratio (serum/microsome),[4],0.0046
same,fu ratio (serum/microsome),[5],0.0099
same,Ki,[6],≥ 49 µM
same,Ki value,[6]; microsomes,maximum addition concentration
same,Human (fu value),[12],0.005
same,"fraction unbound at 24 h, 0.2 μmol/L",[1]; serum,0.02
same,Cmax,[3]; Dose 210 mg,40327 ng/mL
same,AUCR (observed value),[11]; 210 mg,0.90
COC(=O)N[C@H](C(=O)N1CCC[C@H]1c1nc(-c2ccc3c(c2)O[C@@H](c2ccccc2)n2c-3cc3cc(-c4c[nH]c([C@@H]5CCCN5C(=O)[C@@H](NC(=O)OC)C(C)C)n4)ccc32)c[nH]1)C(C)C [Elbasvir],Rat (fu value),[13],0.001
same,Human (fu value),[12],0.001
CCC(C)n1ncn(-c2ccc(N3CCN(c4ccc(OCC5COC(Cn6cncn6)(c6ccc(Cl)cc6Cl)O5)cc4)CC3)cc2)c1=O (stereo not shown) [Itraconazole],"fraction unbound at 24 h, 1 μmol/L",[10],0.77
same,Cmax,[3]; Dose 50 mg,14.11 ng/mL
same,Cmax,[3]; Dose 200 mg,163.93 ng/mL
same,Cmax,[3]; Dose 400 mg,317.52 ng/mL
same,AUCR (observed value),[11]; 50 mg,1.91
same,AUCR (observed value),[11]; 200 mg,5.05
same,AUCR (observed value),[11]; 400 mg,5.07
O=C(NC1CCN(CCCCC2(C(=O)NCC(F)(F)F)c3ccccc3-c3ccccc32)CC1)c1ccccc1-c1ccc(C(F)(F)F)cc1 [Lomitapide],Human (fu value),[12],0.002
same,"fraction unbound at 24 h, 0.2 μmol/L",[1]; serum,0.006
CNC(=O)c1ccc(N2C(=S)N(c3cnc(C#N)c(C(F)(F)F)c3)C(=O)C23CCC3)cc1F [Apalutamide],fu ratio (rat/human),[14],3.36
same,"fraction unbound at 24 h, 0.2 μmol/L",[1],0.104
same,"fraction unbound at 24 h, 0.2 μmol/L",[2],0.03
same,fu ratio (rat/human),[15],2.30
same,fu ratio (rat/human),[16],2.50
CC(=O)N1CCN(c2ccc(OCC3COC(Cn4ccnc4)(c4ccc(Cl)cc4Cl)O3)cc2)CC1 (stereo not shown) [Ketoconazole],Cmax,[3]; Dose 200 mg,4681.36 ng/mL
same,Cmax,[3]; Dose 400 mg,5877.28 ng/mL
C=CC(=O)N1CCC[C@@H](n2nc(-c3ccc(Oc4ccccc4)cc3)c3c(N)ncnc32)C1 [Ibrutinib],"fraction unbound at 24 h, 0.2 μmol/L",[1]; serum,0.007
same,"fraction unbound at 24 h, 0.2 μmol/L",[2],0.019

# From patent US20240125807A1, “METHOD FOR MEASURING RELATIVE fu RATIO BY DYNAMIC [sequence]” (Chugai Seiyaku Kabushiki Kaisha, priority 2020, published 2024)
